Test results from ChEMBL document CHEMBL1240439, “Synthesis and docking studies of novel benzopyran-2-ones with anticancer activity” (2010).
The source made the active and inactive calls.

How the values were obtained:
Assay type in all cases: functional
SF-295 = experiment: Cytotoxicity against human SF295 cells assessed as cell growth at 10 uM after 48 hrs by sulforhodamine B assay
RPMI-8226 = experiment: Cytotoxicity against human RPMI8226 cells assessed as cell growth at 10 uM after 48 hrs by sulforhodamine B assay
MOLT-4 = experiment: Cytotoxicity against human MOLT4 cells assessed as cell growth at 10 uM after 48 hrs by sulforhodamine B assay
K562 = experiment: Cytotoxicity against human K562 cells assessed as cell growth at 10 uM after 48 hrs by sulforhodamine B assay
NCI-H522 = experiment: Cytotoxicity against human NCI-H522 cells assessed as cell growth at 10 uM after 48 hrs by sulforhodamine B assay
HT-29 = experiment: Cytotoxicity against human HT-29 cells assessed as cell growth at 10 uM after 48 hrs by sulforhodamine B assay
PC-3 = experiment: Cytotoxicity against human PC3 cells assessed as cell growth at 10 uM after 48 hrs by sulforhodamine B assay
UACC-62 = experiment: Cytotoxicity against human UACC62 cells assessed as cell growth at 10 uM after 48 hrs by sulforhodamine B assay
HL-60(TB) = experiment: Cytotoxicity against human HL-60(TB) cells assessed as cell growth at 10 uM after 48 hrs by sulforhodamine B assay
SR = experiment: Cytotoxicity against human SR cells assessed as cell growth at 10 uM after 48 hrs by sulforhodamine B assay
EKVX = experiment: Cytotoxicity against human EKVX cells assessed as cell growth at 10 uM after 48 hrs by sulforhodamine B assay
SK-MEL-2 = experiment: Cytotoxicity against human SK-MEL-2 cells assessed as cell growth at 10 uM after 48 hrs by sulforhodamine B assay
OVCAR-4 = experiment: Cytotoxicity against human OVCAR4 cells assessed as cell growth at 10 uM after 48 hrs by sulforhodamine B assay
T47D = experiment: Cytotoxicity against human T47D cells assessed as cell growth at 10 uM after 48 hrs by sulforhodamine B assay
A549 = experiment: Cytotoxicity against human A549 cells assessed as cell growth at 10 uM after 48 hrs by sulforhodamine B assay
HOP-62 = experiment: Cytotoxicity against human HOP62 cells assessed as cell growth at 10 uM after 48 hrs by sulforhodamine B assay
HOP-92 = experiment: Cytotoxicity against human HOP92 cells assessed as cell growth at 10 uM after 48 hrs by sulforhodamine B assay
NCI-H322M = experiment: Cytotoxicity against human NCI-H322M cells assessed as cell growth at 10 uM after 48 hrs by sulforhodamine B assay
NCI-H460 = experiment: Cytotoxicity against human NCI-H460 cells assessed as cell growth at 10 uM after 48 hrs by sulforhodamine B assay
NCI-H226 = experiment: Cytotoxicity against human NCI-H226 cells assessed as cell growth at 10 uM after 48 hrs by sulforhodamine B assay
NCI-H23 = experiment: Cytotoxicity against human NCI-H23 cells assessed as cell growth at 10 uM after 48 hrs by sulforhodamine B assay
COLO 205 = experiment: Cytotoxicity against human COLO205 cells assessed as cell growth at 10 uM after 48 hrs by sulforhodamine B assay
HCC 2998 = experiment: Cytotoxicity against human HCC2998 cells assessed as cell growth at 10 uM after 48 hrs by sulforhodamine B assay
HCT-116 = experiment: Cytotoxicity against human HCT116 cells assessed as cell growth at 10 uM after 48 hrs by sulforhodamine B assay
HCT-15 = experiment: Cytotoxicity against human HCT15 cells assessed as cell growth at 10 uM after 48 hrs by sulforhodamine B assay
KM12 = experiment: Cytotoxicity against human KM12 cells assessed as cell growth at 10 uM after 48 hrs by sulforhodamine B assay
SW-620 = experiment: Cytotoxicity against human SW620 cells assessed as cell growth at 10 uM after 48 hrs by sulforhodamine B assay
MCF7 = experiment: Cytotoxicity against human MCF7 cells assessed as cell growth at 10 uM after 48 hrs by sulforhodamine B assay
MDA-MB-468 = experiment: Cytotoxicity against human MDA-MB-468 cells assessed as cell growth at 10 uM after 48 hrs by sulforhodamine B assay
MDA-MB-231 = experiment: Cytotoxicity against human MDA-MB-231 cells assessed as cell growth at 10 uM after 48 hrs by sulforhodamine B assay
Hs-578T = experiment: Cytotoxicity against human Hs 578T cells assessed as cell growth at 10 uM after 48 hrs by sulforhodamine B assay
BT-549 = experiment: Cytotoxicity against human BT549 cells assessed as cell growth at 10 uM after 48 hrs by sulforhodamine B assay
IGROV-1 = experiment: Cytotoxicity against human IGROV1 cells assessed as cell growth at 10 uM after 48 hrs by sulforhodamine B assay
OVCAR-3 = experiment: Cytotoxicity against human OVCAR-3 cells assessed as cell growth at 10 uM after 48 hrs by sulforhodamine B assay
OVCAR-5 = experiment: Cytotoxicity against human OVCAR5 cells assessed as cell growth at 10 uM after 48 hrs by sulforhodamine B assay
OVCAR-8 = experiment: Cytotoxicity against human OVCAR8 cells assessed as cell growth at 10 uM after 48 hrs by sulforhodamine B assay
SK-OV-3 = experiment: Cytotoxicity against human SKOV3 cells assessed as cell growth at 10 uM after 48 hrs by sulforhodamine B assay
CCRF-CEM = experiment: Cytotoxicity against human CCRF-CEM cells assessed as cell growth at 10 uM after 48 hrs by sulforhodamine B assay
786-0 = experiment: Cytotoxicity against human 786-0 cells assessed as cell growth at 10 uM after 48 hrs by sulforhodamine B assay
A498 = experiment: Cytotoxicity against human A498 cells assessed as cell growth at 10 uM after 48 hrs by sulforhodamine B assay
ACHN = experiment: Cytotoxicity against human ACHN cells assessed as cell growth at 10 uM after 48 hrs by sulforhodamine B assay
SN12C = experiment: Cytotoxicity against human SN12C cells assessed as cell growth at 10 uM after 48 hrs by sulforhodamine B assay
RXF 393 = experiment: Cytotoxicity against human RXF393 cells assessed as cell growth at 10 uM after 48 hrs by sulforhodamine B assay
TK-10 = experiment: Cytotoxicity against human TK10 cells assessed as cell growth at 10 uM after 48 hrs by sulforhodamine B assay
UO-31 = experiment: Cytotoxicity against human UO31 cells assessed as cell growth at 10 uM after 48 hrs by sulforhodamine B assay
LOX IMVI = experiment: Cytotoxicity against human LOXIMVI cells assessed as cell growth at 10 uM after 48 hrs by sulforhodamine B assay
M14 = experiment: Cytotoxicity against human M14 cells assessed as cell growth at 10 uM after 48 hrs by sulforhodamine B assay
Malme-3M = experiment: Cytotoxicity against human MALME-3M cells assessed as cell growth at 10 uM after 48 hrs by sulforhodamine B assay
MDA-MB-435 = experiment: Cytotoxicity against human MDA-MB-435 cells assessed as cell growth at 10 uM after 48 hrs by sulforhodamine B assay
SK-MEL-28 = experiment: Cytotoxicity against human SK-MEL-28 cells assessed as cell growth at 10 uM after 48 hrs by sulforhodamine B assay
SK-MEL-5 = experiment: Cytotoxicity against human SK-MEL-5 cells assessed as cell growth at 10 uM after 48 hrs by sulforhodamine B assay
UACC-257 = experiment: Cytotoxicity against human UACC257 cells assessed as cell growth at 10 uM after 48 hrs by sulforhodamine B assay
DU-145 = experiment: Cytotoxicity against human DU145 cells assessed as cell growth at 10 uM after 48 hrs by sulforhodamine B assay
SF-268 = experiment: Cytotoxicity against human SF268 cells assessed as cell growth at 10 uM after 48 hrs by sulforhodamine B assay
SF-539 = experiment: Cytotoxicity against human SF539 cells assessed as cell growth at 10 uM after 48 hrs by sulforhodamine B assay
SNB-19 = experiment: Cytotoxicity against human SNB19 cells assessed as cell growth at 10 uM after 48 hrs by sulforhodamine B assay
SNB-75 = experiment: Cytotoxicity against human SNB75 cells assessed as cell growth at 10 uM after 48 hrs by sulforhodamine B assay
U-251 = experiment: Cytotoxicity against human U251 cells assessed as cell growth at 10 uM after 48 hrs by sulforhodamine B assay

Measured: Activity

CCCc1cc(=O)oc2c(C)c(OCC(=O)n3nc(C)cc3C)ccc12
inactive: all assays above
